Data from patent US20070129426A1, “Therapeutic drugs for arthritis” (Shanghai Ambrosia Pharmaceutical Co., Ltd., priority 2003, published 2007).

How the values were obtained:
[1] = system: adjuvant-induced arthritis of rats; experiment: Adjuvant-induced arthritis of rats; type: in vivo, Male Wistar rats
Procedure: Experimental animal: Male Wistar rats. Body weights were about 150 g.
Method of administration: intraperitoneal injection. The dose of wedelolactone was 0.25 mg/kg or 12.5 mg/kg, prepared in 0.5% CMC. The dose of methotrexate (MTX) is 0.2 mg/kg.
Method of experiment: The animals were divided randomly into 4 groups based on their body weights. They were adapted for 3 days before experiments. The left hind planta of the rats were injected subcutaneously with 0.1 ml CFA emulsion to induce inflammation. On the Day 10, after the administration of the adjuvant, the rats were injected intraperitoneally with 5 ml/kg test compound wedelolactone for 19 continuous days. On and after the day of administration of the adjuvant, the change of thickness of the four rat paws was measured daily using a vernier caliper, and the volume of the back paw were measured using a Plethysmometer. The data from day 5, 10, 15, and 19 after administration were used for statistic analyses.

[2] = system: rat toes edema caused by carrageenan; experiment: Rat toes edema caused by carrageenan; type: in vivo, Male Wistar rats; details: 25 mg/kg i.p., 7 days
Procedure: Experimental animal: Male Wistar rats. Body weights are about 200 g.
Method of administration: intraperitoneal injection. The dose of compound 1, 2, or 3 is 12 mg/kg, respectively. The negative control used 0.5% CMC; the positive control used ibuprofen, with a dose of 25 mg/kg.
Method of experiment: The animals were divided randomly into […] based on their body weights, […]. The 4 groups were negative control group, positive control group, compound 1 group, compound 2 group, and compound 3 group. The animals were administered daily for 7 continuous days. On Day 7, the aponeurosis of right hind toes were injected with 0.1 ml of 1% carrageenan 30 minutes after the administration. The edema of the toes at different time points after induction of the inflammation was then measured.

[3] = system: acute inflammation of mice ear caused by dimethylbenzene; experiment: Mice ear inflammation caused by dimethylbenzene; type: in vivo, Kunming mice; details: 25 mg/kg i.p., 4 days; 2 h after dimethylbenzene; n=10
Procedure: Experimental animal: Kunming mice, body weight 18-22 g.
Method of administration: intraperitoneal injection. The doses of wedelolactone were 12.5 mg/kg and 25 mg/kg, respectively; the negative control used 0.5% CMC; the positive control used ibuprofen (25 mg/kg).
Method of experiment: The animals were divided randomly into 4 groups based on their body weights, 10 mice each group. The mice were administered with the test compound for 4 continuous days. On Day 4, both sides of the right ears of the mice were daubed evenly with 50 μl dimethylbenzene 2 hours after the administration. The left ears were not treated. The mice were left for 2 hours and then sacrificed by cervical dislocation. The ear specimens were obtained by punching both ears with a 8 mm hole-puncher. The specimens were weighed and the differences between the left and the right ears were used to evaluate the effect of the compound on the inflammation.

[4] = 0.2 mg/kg i.p., day 5 after administration
[5] = 0.2 mg/kg i.p., day 5 after administration, adjuvant-injected paw
[6] = 0.2 mg/kg i.p., day 10 after administration
[7] = 0.2 mg/kg i.p., day 10 after administration, adjuvant-injected paw
[8] = 0.2 mg/kg i.p., day 15 after administration
[9] = 0.2 mg/kg i.p., day 15 after administration, adjuvant-injected paw
[10] = 0.2 mg/kg i.p., day 19 after administration
[11] = 0.2 mg/kg i.p., day 19 after administration, adjuvant-injected paw

SMILES: CN(Cc1cnc2nc(N)nc(N)c2n1)c1ccc(C(=O)N[C@@H](CCC(=O)O)C(=O)O)cc1 [MTX, methotrexate, reference compound]
- Left front paw thickness, Day 5 [1, 4]: 4.14 ± 0.14 mm
- Right front paw thickness, Day 5 [1, 4]: 4.00 ± 0.10 mm
- Right hind paw thickness, Day 5 [1, 4]: 4.89 ± 0.23 mm
- Right hind paw volume, Day 5 [1, 4]: 1.09 ± 0.07 mL
- Left hind paw thickness, Day 5 [1, 5]: 6.96 ± 1.97 mm
- Left hind paw volume, Day 5 [1, 5]: 1.68 ± 0.32 mL
- Left front paw thickness, Day 10 [1, 6]: 3.96 ± 0.10 mm
- Right front paw thickness, Day 10 [1, 6]: 3.84 ± 0.10 mm
- Right hind paw thickness, Day 10 [1, 6]: 4.87 ± 0.18 mm
- Right hind paw volume, Day 10 [1, 6]: 1.00 ± 0.10 mL
- Left hind paw thickness, Day 10 [1, 7]: 7.44 ± 1.42 mm
- Left hind paw volume, Day 10 [1, 7]: 1.73 ± 0.23 mL
- Left front paw thickness, Day 15 [1, 8]: 4.04 ± 0.10 mm
- Right front paw thickness, Day 15 [1, 8]: 4.07 ± 0.13 mm
- Right hind paw thickness, Day 15 [1, 8]: 5.04 ± 0.28 mm
- Right hind paw volume, Day 15 [1, 8]: 1.17 ± 0.11 mL
- Left hind paw thickness, Day 15 [1, 9]: 7.86 ± 1.36 mm
- Left hind paw volume, Day 15 [1, 9]: 1.93 ± 0.34 mL
- Left front paw thickness, Day 19 [1, 10]: 4.09 ± 0.11 mm
- Right front paw thickness, Day 19 [1, 10]: 4.00 ± 0.12 mm
- Right hind paw thickness, Day 19 [1, 10]: 4.90 ± 0.08 mm
- Right hind paw volume, Day 19 [1, 10]: 1.19 ± 0.09 mL
- Left hind paw thickness, Day 19 [1, 11]: 7.51 ± 1.40 mm
- Left hind paw volume, Day 19 [1, 11]: 1.84 ± 0.26 mL
- Primary inflammation of the left foot and secondary inflammation of the right foot (FIG. 2) ([1]; treated with MTX): alleviated

SMILES: CC(C)Cc1ccc(C(C)C(=O)O)cc1 (stereo not shown) [ibuprofen]
- Edema index (ml) after induction of the inflammation, 1 h ([2]; 1 h): 0.31 ± 0.06 mL
- Edema index (ml) after induction of the inflammation, 2 h ([2]; 2 h): 0.38 ± 0.10 mL
- Edema index (ml) after induction of the inflammation, 4 h ([2]; 4 h): 0.42 ± 0.11 mL
- Edema index (ml) after induction of the inflammation, 6 h ([2]; 6 h): 0.39 ± 0.06 mL
- Edema index (ml) after induction of the inflammation, 24 h ([2]; 24 h): 0.37 ± 0.07 mL
- Difference (mg) between left and right ear [3]: 11.4 ± 3.6 mg
